Tested on: RAW264.7
Assay: Inhibition of NFkappaB in LPS-challenged mouse RAW264.7 cells assessed as ratio of NFkappaB transcriptional activity to thymidine kinase transcriptional activity at 100 uM incubated for 30 mins prior to LPS-challenge measured after 6 hrs by dual luciferase reporter gene assay (reference value: 5.18+/-0.98)
Format: cell-based

`COC1=C[C@@H]2[C@@H]3Cc4ccc(OC)c(OCc5ccc(F)cc5)c4[C@]2(CCN3C)CC1=O` gave a Ratio of 4.22.

`COC1=C[C@@H]2[C@@H]3Cc4ccc(OC)c(OCc5cn(Cc6ccccc6Cl)nn5)c4[C@]2(CCN3C)CC1=O` was tested, and the Ratio was 2.39.

For `COC1=C[C@@H]2[C@@H]3Cc4ccc(OC)c(OCc5cn(Cc6c(Cl)cccc6Cl)nn5)c4[C@]2(CCN3C)CC1=O`, the Ratio was 3.44.

`COC1=C[C@@H]2[C@@H]3Cc4ccc(OC)c(OCc5cccc([N+](=O)[O-])c5)c4[C@]2(CCN3C)CC1=O` gave a Ratio of 4.18.

In the case of `COC1=C[C@@H]2[C@@H]3Cc4ccc(OC)c(OCc5cn(Cc6ccc(OC)cc6)nn5)c4[C@]2(CCN3C)CC1=O`, the Ratio is reported as 3.12.

For `COC1=C[C@@H]2[C@@H]3Cc4ccc(OC)c(OCc5cn(Cc6cccc(Br)c6)nn5)c4[C@]2(CCN3C)CC1=O`, the Ratio was 2.46.

`COC1=C[C@@H]2[C@@H]3Cc4ccc(OC)c(OCc5cn(Cc6ccc(Cl)cc6Cl)nn5)c4[C@]2(CCN3C)CC1=O` showed a Ratio of 2.74.

`COC1=C[C@@H]2[C@@H]3Cc4ccc(OC)c(OCc5cn(Cc6ccccc6C)nn5)c4[C@]2(CCN3C)CC1=O` gave a Ratio of 3.

Work on `COC1=C[C@@H]2[C@@H]3Cc4ccc(OC)c(OCc5ccccc5F)c4[C@]2(CCN3C)CC1=O` yielded a Ratio of 4.71.

With `COC1=C[C@@H]2[C@@H]3Cc4ccc(OC)c(OCc5ccccc5C#N)c4[C@]2(CCN3C)CC1=O` the Ratio was 5.09.

`COC1=C[C@@H]2[C@@H]3Cc4ccc(OC)c(OCc5ccccc5Br)c4[C@]2(CCN3C)CC1=O` gave a Ratio of 5.03.

`COC1=C[C@@H]2[C@@H]3Cc4ccc(OC)c(OCc5cn(Cc6ccccc6C#N)nn5)c4[C@]2(CCN3C)CC1=O` was tested, and the Ratio was 1.96.

`COC1=C[C@@H]2[C@@H]3Cc4ccc(OC)c(OCc5ccc([N+](=O)[O-])cc5)c4[C@]2(CCN3C)CC1=O` showed a Ratio of 4.37.

In the case of `COC1=C[C@@H]2[C@@H]3Cc4ccc(OC)c(OCc5ccccc5C)c4[C@]2(CCN3C)CC1=O`, the Ratio is reported as 4.91.

`COC1=C[C@@H]2[C@@H]3Cc4ccc(OC)c(OCc5ccc(Br)cc5)c4[C@]2(CCN3C)CC1=O` gave a Ratio of 4.82.

`COC1=C[C@@H]2[C@@H]3Cc4ccc(OC)c(OCc5cccc(F)c5)c4[C@]2(CCN3C)CC1=O` was tested, and the Ratio was 4.53.

In the case of `COC1=C[C@@H]2[C@@H]3Cc4ccc(OC)c(OCc5ccccc5[N+](=O)[O-])c4[C@]2(CCN3C)CC1=O`, the Ratio is reported as 4.7.

In the case of `COC1=C[C@@H]2[C@@H]3Cc4ccc(OC)c(OCc5cn(Cc6ccc(Cl)cc6)nn5)c4[C@]2(CCN3C)CC1=O`, the Ratio is reported as 2.22.

In the case of `COC1=C[C@@H]2[C@@H]3Cc4ccc(OC)c(OCc5cn(Cc6cccc([N+](=O)[O-])c6)nn5)c4[C@]2(CCN3C)CC1=O`, the Ratio is reported as 3.17.

Molecule `COC1=C[C@@H]2[C@@H]3Cc4ccc(OC)c(OCc5cn(Cc6ccc(C)cc6)nn5)c4[C@]2(CCN3C)CC1=O` has a Ratio of 3.37.

Molecule `COC1=C[C@@H]2[C@@H]3Cc4ccc(OC)c(OCc5ccc(OC)cc5)c4[C@]2(CCN3C)CC1=O` has a Ratio of 4.85.

For `COC1=C[C@@H]2[C@@H]3Cc4ccc(OC)c(OCc5cn(Cc6ccc(F)cc6)nn5)c4[C@]2(CCN3C)CC1=O`, the Ratio was 1.98.

`COC1=C[C@@H]2[C@@H]3Cc4ccc(OC)c(OCc5cccc(Br)c5)c4[C@]2(CCN3C)CC1=O` gave a Ratio of 4.51.

For `COC1=C[C@@H]2[C@@H]3Cc4ccc(OC)c(OCc5cccc(C#N)c5)c4[C@]2(CCN3C)CC1=O`, the Ratio was 4.28.

Molecule `COC1=C[C@@H]2[C@@H]3Cc4ccc(OC)c(OCc5cn(Cc6cccc(C)c6)nn5)c4[C@]2(CCN3C)CC1=O` has a Ratio of 2.98.

With `COC1=C[C@@H]2[C@@H]3Cc4ccc(OC)c(OCc5cn(Cc6ccc(C#N)cc6)nn5)c4[C@]2(CCN3C)CC1=O` the Ratio was 3.61.

`COC1=C[C@@H]2[C@@H]3Cc4ccc(OC)c(OCc5cn(Cc6cccc(C#N)c6)nn5)c4[C@]2(CCN3C)CC1=O` gave a Ratio of 2.86.

`COC1=C[C@@H]2[C@@H]3Cc4ccc(OC)c(OCc5ccc(C)cc5)c4[C@]2(CCN3C)CC1=O` was tested, and the Ratio was 5.24.

`COC1=C[C@@H]2[C@@H]3Cc4ccc(OC)c(OCc5cn(Cc6cccc(Cl)c6)nn5)c4[C@]2(CCN3C)CC1=O` showed a Ratio of 2.88.

Molecule `COC1=C[C@@H]2[C@@H]3Cc4ccc(OC)c(OCc5cn(Cc6ccccc6)nn5)c4[C@]2(CCN3C)CC1=O` has a Ratio of 1.8.

Molecule `COC1=C[C@@H]2[C@@H]3Cc4ccc(OC)c(OCc5cn(Cc6ccccc6F)nn5)c4[C@]2(CCN3C)CC1=O` has a Ratio of 3.13.

Work on `COC1=C[C@@H]2[C@@H]3Cc4ccc(OC)c(OCc5cccc(C)c5)c4[C@]2(CCN3C)CC1=O` yielded a Ratio of 4.71.

For `COC1=C[C@@H]2[C@@H]3Cc4ccc(OC)c(OCc5cn(Cc6ccccc6Br)nn5)c4[C@]2(CCN3C)CC1=O`, the Ratio was 2.08.

Work on `COC1=C[C@@H]2[C@@H]3Cc4ccc(OC)c(OCc5cn(Cc6ccccc6[N+](=O)[O-])nn5)c4[C@]2(CCN3C)CC1=O` yielded a Ratio of 2.32.

With `COC1=C[C@@H]2[C@@H]3Cc4ccc(OC)c(OCc5cn(Cc6ccc(Br)cc6)nn5)c4[C@]2(CCN3C)CC1=O` the Ratio was 4.19.

Work on `COC1=C[C@@H]2[C@@H]3Cc4ccc(OC)c(OCc5cn(Cc6cccc(F)c6)nn5)c4[C@]2(CCN3C)CC1=O` yielded a Ratio of 3.04.

For `COC1=C[C@@H]2[C@@H]3Cc4ccc(OC)c(OCc5cn(Cc6ccc([N+](=O)[O-])cc6)nn5)c4[C@]2(CCN3C)CC1=O`, the Ratio was 3.63.

`COC1=C[C@@H]2[C@@H]3Cc4ccc(OC)c(O)c4[C@]2(CCN3C)CC1=O` gave a Ratio of 4.41.

With `COC1=C[C@@H]2[C@@H]3Cc4ccc(OC)c(OCc5cn(Cc6ccc(C(C)(C)C)cc6)nn5)c4[C@]2(CCN3C)CC1=O` the Ratio was 3.26.

Source: ChEMBL document CHEMBL2069225, “Design, synthesis and molecular docking studies of sinomenine derivatives” (Bioorg Med Chem Lett, 2012)
